In paper PMC12432435, “Not only an inhibitor: Trehalose enhances the catalytic action exerted on oxaloacetate by rabbit lactate dehydrogenase” (Protein Science : A Publication of the Protein Society, 2025):

Legend:
[1] = biological target: T1, rabbit muscle lactate dehydrogenase (rbLDH, LDH-A) (Oryctolagus cuniculus, UniProt P13491); assay: stopped-flow tryptophan fluorescence quenching of the rbLDH•β-NADH complex; assay type: binding
T1 construct: gene LDHA; tetrameric enzyme from rabbit skeletal muscle

[2] = biological target: T1, rabbit muscle lactate dehydrogenase (rbLDH, LDH-A); assay: stopped-flow tryptophan fluorescence quenching (FRET), association and dissociation kinetics; assay type: binding; settings: read-out: stopped-flow tryptophan fluorescence quenching (FRET), association and dissociat

Control / k obs [1] [s⁻¹] | kon [2] [M⁻¹ s⁻¹] | SMILES
642 ± 19 | – | NC(=O)C(=O)O [oxamate]
– | 1.17e+08 | NC(=O)C1=CN([C@@H]2O[C@H](COP(=O)(O)OP(=O)(O)OC[C@H]3O[C@@H](n4cnc5c(N)ncnc54)[C@H](O)[C@@H]3O)[C@@H](O)[C@H]2O)C=CC1 [β-NADH]
